{
  "source": "patent US20110251211A9",
  "about": "“METHODS OF USING SUBSTITUTED ISOXAZOLO PYRIDINONES AS DISSOCIATED GLUCOCORTICOIDS” (priority 2009, published 2011)",
  "assay_type_in_all_cases": "cell-based",
  "key": {"GR [1]": {"target": "T1, GR (Homo sapiens, UniProt P04150)", "T1 construct": "expressed in transfected cells; host or cells: AD293 cells", "T1 sequence (P04150 1-777)": "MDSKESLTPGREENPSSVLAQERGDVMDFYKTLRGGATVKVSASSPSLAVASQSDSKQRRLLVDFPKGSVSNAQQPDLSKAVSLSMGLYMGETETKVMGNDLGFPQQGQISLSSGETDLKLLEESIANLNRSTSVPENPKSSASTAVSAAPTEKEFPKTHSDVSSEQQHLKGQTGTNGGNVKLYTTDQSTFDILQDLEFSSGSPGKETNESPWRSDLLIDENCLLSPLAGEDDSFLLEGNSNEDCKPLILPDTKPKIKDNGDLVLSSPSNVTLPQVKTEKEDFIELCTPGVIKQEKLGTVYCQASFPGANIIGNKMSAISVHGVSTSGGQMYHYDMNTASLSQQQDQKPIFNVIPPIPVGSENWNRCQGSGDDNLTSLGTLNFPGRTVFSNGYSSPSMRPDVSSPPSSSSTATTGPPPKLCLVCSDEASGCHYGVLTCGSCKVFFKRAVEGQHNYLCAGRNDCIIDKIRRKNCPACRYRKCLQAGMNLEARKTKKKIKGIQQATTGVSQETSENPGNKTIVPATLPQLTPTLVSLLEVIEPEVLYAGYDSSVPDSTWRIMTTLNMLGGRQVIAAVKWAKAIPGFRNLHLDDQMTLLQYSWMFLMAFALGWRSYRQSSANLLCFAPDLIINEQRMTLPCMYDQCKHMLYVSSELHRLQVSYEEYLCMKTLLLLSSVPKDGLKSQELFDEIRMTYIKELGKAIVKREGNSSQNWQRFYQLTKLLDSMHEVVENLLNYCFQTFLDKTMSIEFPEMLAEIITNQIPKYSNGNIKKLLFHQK", "test": "GR transrepression of AP1 in AD293 cells (AP1-Luc dual-luciferase reporter)", "description": "FIG. 9 is a bar graph showing the dose-response of Compound #53 on GR transrepression of AP1 in AD293 cells.\nGR Transrepression of AP1 in AD293 Cells Transfected with 10 ng GR\nAD293 cells were transfected with 10 ng GR, 100 ng AP1-Luc reporter together with 5 ng Renilla control plasmids, then induced by EtOH (vehicle control), Dexamethasone (10 nM), Compound #53 (5 μM), AL438 (1 μM). Dual-Luciferase values were measured by Promega standard manual.\nGR Transpression of AP 1 in AD293 Cells Transfected with 50 ng GR\nAD293 cells were transfected with 50 ng GR, 100 ng AP1-Luc reporter together with 5 ng Renilla control plasmids, then induced by PMA+EtOH (vehicle control), PMA+Dexamethasone (10 nM), PMA+Compound #53 (5 μM). Dual-Luciferase values were measured by Promega standard manual."}, "GR [2]": {"target": "T1, GR", "test": "GR transrepression of NF-kB in AD293 cells (pNF-kB-Luc dual-luciferase reporter)", "description": "FIG. 10 is a bar graph showing the dose-response of Compound #53 on GR transrepression of NF-kB in AD293 cells.\nGR Transrepression of NF-kB in AD293 Cells Transfected with 100 ng GR\n[…] Dual-Luciferase values were measured by Promega standard manual."}, "GR [3]": {"target": "T1, GR", "test": "GR transactivation on MMTV in AD293 cells (pHHLuc dual-luciferase reporter)", "details": "FIG. 5", "description": "GR Transactivation on MMTV in∘AD293 Cells Transfected with 0.5 ng GR\nAD293 cells were transfected with 0.5 ng GR, 100 ng pHHLuc reporter together with 5 ng Renilla control plasmids, then induced by EtOH (vehicle control), Dexamethasone (10 nM), Compound #53 (5 μM), AL438 (1 μM) and DMSO (vehicle control). Dual-Luciferase values were measured by Promega standard manual, Compound #53's transactivation activity on MMTV in AD293 cells is shown in FIG. 5."}, "[4]": {"details": "dose-response repression experiments"}},
  "data": [
    {"molecule": "CN(C)Cc1ccc(-c2cc3onc(-c4ccccc4)c3c(=O)n2C)cc1", "note": "[Compound #53, 6-(4-((dimethylamino)methyl)phenyl)-5-methyl-3-phenylisoxazolo[4,5-c]pyridin-4(5H)-one]", "values": [
      {"measurement": "GR transrepression activity on AP1 compared with currently used GR ligands", "setting": "GR [1]; FIGS. 6-7", "result": "stronger GR transrepression activity than currently used GR ligands"},
      {"measurement": "fold repression for AP1", "setting": "GR [1]; at 50 μM, dose-response, FIG. 9", "result": "about 2000"},
      {"measurement": "AP-1 activity on the reporter", "setting": "GR [1]; [4]", "result": "almost zero"},
      {"measurement": "GR transrepression activity on NF-kB compared with currently used GR ligands", "setting": "GR [2]; FIG. 8", "result": "stronger GR transrepression activity than currently used GR ligands"},
      {"measurement": "fold repression of NF-kB", "setting": "GR [2]; at 50 μM, dose-response, FIG. 10", "result": "about 1000"},
      {"measurement": "NF-kB activity on the reporter", "setting": "GR [2]; [4]", "result": "almost zero"},
      {"measurement": "GR transactivation activity", "setting": "GR [3]", "result": "minimal GR transactivation activity"}
    ]}
  ]
}
